Results: PMC6566410, “Novel Diamide-Based Benzenesulfonamides as Selective Carbonic Anhydrase IX Inhibitors Endowed with Antitumor Activity: Synthesis, Biological Evaluation and In Silico Insights” (International Journal of Molecular Sciences, 2019)

How the values were obtained:
SR = assay: NCI one-dose SRB assay; format: cell-based, human; details: SR (Leukemia), 1.00E-5 Molar
Method: (§1) First, all diamide-based benzenesulfonamides herein reported 5a–h were screened for their antitumor activity at one dose (10^−5 M) assay against a panel of sixty cancer cell lines through the National Cancer Institute (NCI) Developmental Therapeutic Program (www.dtp.nci.nih.gov), according to US-NCI protocol. The cell growth and cell viability were evaluated using the sulforhodamine B (SRB) colorimetric assay.
(§2) This assay was carried out according to the protocol of the Drug Evaluation Branch, NCI, Bethesda. The cell growth and cell viability were evaluated using the sulforhodamine B (SRB) colorimetric assay, as reported earlier.

hCA IX = hCA IX (Homo sapiens, UniProt Q16790); assay: stopped-flow CO2 hydrase assay; details: for Selectivity ratio I/IX: KI hCA I / KI hCA IX; for Selectivity ratio II/IX: KI hCA II / KI hCA IX
Excerpt: (§3) An Applied Photophysics stopped-flow instrument was used for assaying the CA catalysed CO2 hydration activity, as reported earlier [17]. The inhibition constants were obtained by non-linear least-squares methods using PRISM 3 and the Cheng-Prusoff equation as reported earlier, and represent the mean from at least three different determinations. The four tested CA isofoms were recombinant ones obtained in-house as reported earlier [26, 27, 28, 29].

hCA II = hCA II (Homo sapiens, UniProt P00918); assay: stopped-flow CO2 hydrase assay
Excerpt: as §3

HCC-2998 = assay: NCI one-dose SRB assay; format: cell-based; details: Homo sapiens, HCC-2998 (Colon Cancer), 1.00E-5 Molar, read-out: Growth Percent
Method: as §1, §2

SF-268 = assay: NCI one-dose SRB assay; format: cell-based; details: Homo sapiens, SF-268 (CNS Cancer), 1.00E-5 Molar, read-out: Growth Percent
Method: as §1, §2

MDA-MB-468 = assay: NCI one-dose SRB assay; format: cell-based; details: Homo sapiens, MDA-MB-468 (Breast Cancer), 1.00E-5 Molar, read-out: Growth Percent
Method: as §1, §2

K-562 = assay: NCI one-dose SRB assay; format: cell-based; details: Homo sapiens, K562, K-562 (Leukemia), 1.00E-5 Molar, read-out: Growth Percent
Method: as §1, §2

DU-145 = assay: NCI one-dose SRB assay; format: cell-based; details: Homo sapiens, DU-145 (Prostate Cancer), 1.00E-5 Molar, read-out: Growth Percent
Method: as §1, §2

COLO 205 = assay: NCI one-dose SRB assay; format: cell-based; details: Homo sapiens, COLO 205 (Colon Cancer), 1.00E-5 Molar, read-out: Growth Percent
Method: as §1, §2

SF-539 = assay: NCI one-dose SRB assay; format: cell-based; details: Homo sapiens, SF-539 (CNS Cancer), 1.00E-5 Molar, read-out: Growth Percent
Method: as §1, §2

SNB-19 = assay: NCI one-dose SRB assay; format: cell-based; details: Homo sapiens, SNB-19 (CNS Cancer), 1.00E-5 Molar, read-out: Growth Percent
Method: as §1, §2

SK-MEL-5 = assay: NCI one-dose SRB assay; format: cell-based; details: Homo sapiens, SK-MEL-5 (Melanoma), 1.00E-5 Molar, read-out: Growth Percent
Method: as §1, §2

HOP-92 = assay: NCI one-dose SRB assay; format: cell-based; details: Homo sapiens, HOP-92 (Non-Small Cell Lung Cancer), 1.00E-5 Molar, read-out: Growth Percent
Method: as §1, §2

SF-295 = assay: NCI one-dose SRB assay; format: cell-based; details: Homo sapiens, SF-295 (CNS Cancer), 1.00E-5 Molar, read-out: Growth Percent
Method: as §1, §2

NCI-H226 = assay: NCI one-dose SRB assay; format: cell-based; details: Homo sapiens, NCI-H226 (Non-Small Cell Lung Cancer), 1.00E-5 Molar, read-out: Growth Percent
Method: as §1, §2

HCT-15 = assay: NCI one-dose SRB assay; format: cell-based; details: Homo sapiens, HCT-15 (Colon Cancer), 1.00E-5 Molar, read-out: Growth Percent
Method: as §1, §2

UACC-257 = assay: NCI one-dose SRB assay; format: cell-based; details: Homo sapiens, UACC-257 (Melanoma), 1.00E-5 Molar, read-out: Growth Percent
Method: as §1, §2

MDA-MB-435 = assay: NCI one-dose SRB assay; format: cell-based; details: Homo sapiens, MDA-MB-435 (Melanoma), 1.00E-5 Molar, read-out: Growth Percent
Method: as §1, §2

RPMI-8226 = assay: NCI one-dose SRB assay; format: cell-based; details: Homo sapiens, RPMI-8226 (Leukemia), 1.00E-5 Molar, read-out: Growth Percent
Method: as §1, §2

HOP-62 = assay: NCI one-dose SRB assay; format: cell-based; details: Homo sapiens, HOP-62 (Non-Small Cell Lung Cancer), 1.00E-5 Molar, read-out: Growth Percent
Method: as §1, §2

SW-620 = assay: NCI one-dose SRB assay; format: cell-based; details: Homo sapiens, SW-620 (Colon Cancer), 1.00E-5 Molar, read-out: Growth Percent
Method: as §1, §2

CCRF-CEM = assay: NCI one-dose SRB assay; format: cell-based; details: Homo sapiens, CCRF-CEM (Leukemia), 1.00E-5 Molar, read-out: Growth Percent
Method: as §1, §2

OVCAR-8 = assay: NCI one-dose SRB assay; format: cell-based; details: Homo sapiens, OVCAR-8 (Ovarian Cancer), 1.00E-5 Molar, read-out: Growth Percent
Method: as §1, §2

SK-MEL-28 = assay: NCI one-dose SRB assay; format: cell-based; details: Homo sapiens, SK-MEL-28 (Melanoma), 1.00E-5 Molar, read-out: Growth Percent
Method: as §1, §2

MCF7 = assay: NCI one-dose SRB assay; format: cell-based; details: Homo sapiens, MCF7 (Breast Cancer), 1.00E-5 Molar, read-out: Growth Percent
Method: as §1, §2

HS 578T = assay: NCI one-dose SRB assay; format: cell-based; details: Homo sapiens, HS 578T (Breast Cancer), 1.00E-5 Molar, read-out: Growth Percent
Method: as §1, §2

[1] = tested on: panel of sixty cancer cell lines; assay: NCI one-dose SRB assay, whole panel; format: cell-based; details: Homo sapiens, mean over the panel, 1.00E-5 Molar, read-out: Mean Growth Percent
Method: as §1, §2

hCA XII = hCA XII (Homo sapiens, UniProt O43570); assay: stopped-flow CO2 hydrase assay; details: for Selectivity ratio I/XII: KI hCA I / KI hCA XII; for Selectivity ratio II/XII: KI hCA II / KI hCA XII
Excerpt: as §3

UO-31 = assay: NCI one-dose SRB assay; format: cell-based; details: Homo sapiens; UO-31 (Renal Cancer), 1.00E-5 Molar, one dose; read-out: Growth Percent
Method: as §1
The obtained data were reported as mean-graph of the percentage growth of the different treated tumour cells (Supplementary Materials). Exploration of results for this assay confirmed that the examined diamide-based benzenesulfonamides 5a–h had non-significant activity towards most NCI cancer cell lines.
as §2

Sequence of hCA XII (O43570 25-354): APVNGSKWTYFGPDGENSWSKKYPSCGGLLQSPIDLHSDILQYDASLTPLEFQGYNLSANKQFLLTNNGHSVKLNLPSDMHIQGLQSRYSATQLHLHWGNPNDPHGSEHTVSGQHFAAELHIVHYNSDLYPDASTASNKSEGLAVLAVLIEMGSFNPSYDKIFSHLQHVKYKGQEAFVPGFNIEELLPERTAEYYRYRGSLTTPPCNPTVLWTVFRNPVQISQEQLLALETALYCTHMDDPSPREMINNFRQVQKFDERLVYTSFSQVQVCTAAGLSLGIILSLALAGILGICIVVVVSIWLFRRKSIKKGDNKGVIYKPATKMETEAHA

SMILES | Growth Percent (SR) [%] | Ki (hCA IX) [nM] | Selectivity ratio I/IX (hCA IX) | Selectivity ratio II/IX (hCA IX) | Ki (hCA II) [nM] | activity at 10 µM (HCC-2998) [%] | activity at 10 µM (SF-268) [%] | activity at 10 µM (MDA-MB-468) [%] | activity at 10 µM (K-562) [%] | activity at 10 µM (DU-145) [%] | activity at 10 µM (COLO 205) [%] | activity at 10 µM (SF-539) [%] | activity at 10 µM (SNB-19) [%] | activity at 10 µM (SK-MEL-5) [%] | activity at 10 µM (HOP-92) [%] | activity at 10 µM (SF-295) [%] | activity at 10 µM (NCI-H226) [%] | activity at 10 µM (HCT-15) [%] | activity at 10 µM (UACC-257) [%] | activity at 10 µM (MDA-MB-435) [%] | other results
NS(=O)(=O)c1ccc(NC(=O)C(=Cc2ccc(Cl)cc2)NC(=O)c2ccccc2)cc1 [Compound 5a, N-(1-(4-Chlorophenyl)-3-oxo-3-((4-sulfamoylphenyl)amino)prop-1-en-2-yl)benzamide] | 96.44 | 8.8 | 449.5 | 7.8 | 68.3 | 103 | 96 | 101 | 109 | 107 | 104 | 98.8 | 103 | 100 | 98.8 | 104 | 92.9 | 106 | 103 | 98.7 | activity at 10 µM (RPMI-8226): 109%; activity at 10 µM (HOP-62): 91.9%; activity at 10 µM (SW-620): 100%; activity at 10 µM (CCRF-CEM): 107%; activity at 10 µM (OVCAR-8): 97.6%; activity at 10 µM (SK-MEL-28): 110%; activity at 10 µM (MCF7): 98.3%; activity at 10 µM (HS 578T): 101%; activity at 10 µM [1]: 100%; Ki (hCA XII): 16.1 nM; Selectivity ratio I/XII (hCA XII): 245.7; Selectivity ratio II/XII (hCA XII): 4.2; activity at 10 µM (UO-31): 78.7%; melting point: 255 to 258 °C
NS(=O)(=O)c1ccc(NC(=O)C(=Cc2ccc(Br)cc2)NC(=O)c2ccccc2)cc1 [Compound 5c, N-(1-(4-Bromophenyl)-3-oxo-3-((4-sulfamoylphenyl)amino)prop-1-en-2-yl)benzamide] | 88.11 | 33.5 | 71.6 | 7.5 | 252 | 103 | 99.6 | 99.9 | 92.8 | 108 | 105 | 92.8 | 95.1 | 93.1 | 94 | 99.2 | 97.2 | 92.5 | 105 | 95 | activity at 10 µM (RPMI-8226): 97.2%; activity at 10 µM (HOP-62): 104%; activity at 10 µM (SW-620): 104%; activity at 10 µM (CCRF-CEM): 99.4%; activity at 10 µM (OVCAR-8): 102%; activity at 10 µM (SK-MEL-28): 113%; activity at 10 µM (MCF7): 98.1%; activity at 10 µM (HS 578T): 93.9%; activity at 10 µM [1]: 97.3%; Ki (hCA XII): 55.4 nM; Selectivity ratio I/XII (hCA XII): 43.3; Selectivity ratio II/XII (hCA XII): 4.5; activity at 10 µM (UO-31): 77.2%; melting point: 210 to 212 °C
Cc1ccc(C=C(NC(=O)c2ccccc2)C(=O)Nc2ccc(S(N)(=O)=O)cc2)cc1 [Compound 5d, N-(3-Oxo-3-((4-sulfamoylphenyl)amino)-1-(p-tolyl)prop-1-en-2-yl)benzamide] | 85.23 | 62.1 | 12.8 | 1.5 | 94.4 | 100 | 106 | 111 | 94.6 | 105 | 117 | 102 | 103 | 97 | 109 | 106 | 105 | 90.6 | 105 | 92.9 | activity at 10 µM (RPMI-8226): 107%; activity at 10 µM (HOP-62): 114%; activity at 10 µM (SW-620): 113%; activity at 10 µM (CCRF-CEM): 102%; activity at 10 µM (OVCAR-8): 98.3%; activity at 10 µM (SK-MEL-28): 118%; activity at 10 µM (MCF7): 104%; activity at 10 µM (HS 578T): 117%; activity at 10 µM [1]: 102%; Ki (hCA XII): 60.2 nM; Selectivity ratio I/XII (hCA XII): 13.2; activity at 10 µM (UO-31): 87%; melting point: 255 to 258 °C
NS(=O)(=O)c1ccc(NC(=O)C(=Cc2ccc(Cl)cc2Cl)NC(=O)c2ccccc2)cc1 [Compound 5b, N-(1-(2,4-Dichlorophenyl)-3-oxo-3-((4-sulfamoylphenyl)amino)prop-1-en-2-yl)benzamide] | 96.62 | 18.3 | 326.6 | 12.2 | 224 | 103 | 94.5 | 110 | 88.2 | 109 | 110 | 95.7 | 95.6 | 90.2 | 87 | 104 | 103 | 110 | 102 | 97.7 | activity at 10 µM (RPMI-8226): 92.2%; activity at 10 µM (HOP-62): 95.7%; activity at 10 µM (SW-620): 104%; activity at 10 µM (CCRF-CEM): 105%; activity at 10 µM (OVCAR-8): 101%; activity at 10 µM (SK-MEL-28): 110%; activity at 10 µM (MCF7): 90.1%; activity at 10 µM (HS 578T): 89.5%; activity at 10 µM [1]: 97%; Ki (hCA XII): 10.5 nM; Selectivity ratio I/XII (hCA XII): 569.2; Selectivity ratio II/XII (hCA XII): 21.3; activity at 10 µM (UO-31): 75.8%; melting point: 265 to 267 °C
